Assay results from patent publication US7361664B2, “Vitamin D receptor antagonists and related compositions and methods of use” (The United States of America as represented by the …, priority 2001, dated 2008).

What was measured:
MCF-7 cells [1] = assay: In vivo inhibition of advanced stage tumor growth; design: species or system athymic nude mice; conditions: 2 mg/kg on alternate days, day 35, estrogen pellets
Experimental: MCF-7 cells were injected with Matrigel (10 mg/ml) into 7 weeks old female athymic nude mice (10 mice/treatment group). Tumors were grown in the presence of implanted estrogen pellets (0.72 mg pellets). Four weeks after inoculation, mice were treated for 5 weeks with hormones or vehicle (propylene glycol) on alternate days. BCA11 was added at a concentration of 1 μg/kg and Tamoxifen was added at a concentration of 2 mg/kg.

MCF-7 cells [2] = assay: [3H]-Thymidine incorporation assay; format: cell-based, human; conditions: for effect on MCF-7 cell proliferation ([3H]-thymidine incorporation): 3 days treatment, FIG. 2 and 3
Experimental: MCF-7 cells (10,000 cells/well) were subcultured in 24 well plates and treated with hormone for 3 days in graded concentrations (FIG. 2). For the last 12 hours, [^3H]-thymidine (0.5 μCi/well) was added to cells. Cells were treated with TCA (20% for 15 minutes, twice with 10% for 3 minutes, and ethanol for 3 minutes). Acid-insoluble material was dissolved in 1 N NaOH, then neutralized with 1 N HCl. Radioactivity was measured by liquid scintillation counting. Data were expressed as radioactivity (% of control). The control was cells treated with vehicle (0.1% ethanol). […] Anti-proliferative effects of BCA11 and calcitriol were additive.

BT20 cells [3] = assay: Effect of dietary vitamin D on BT20 tumor growth; format: in vivo, athymic nude mice; conditions: for tumor weight: day 69
Experimental: BT20 cells (estrogen receptor-negative, human breast cancer cells; 5 million) were injected with Matrigel (10 mg/ml) into each flank of 10 weeks old female athymic nude mice. Tumor growth was monitored for six weeks on a low-calcium diet (0.4% Ca, 0.3% P and no vitamin D; Harlan Teklad). Then, mice bearing equal number and size tumors were randomly selected for treatment groups. One group continued on the low-calcium diet (serum 25-OH-D3 approx. 2 pg/ml) and received vehicle and the other group was placed on a normal diet (1.19% Ca, 0.86% P, and 6.6 mg/kg vitamin D; serum 25-OH-D3 approx. 18 pg/ml) and received vehicle.
Six weeks old female athymic mice were placed on diets of 0.5% Ca, 0.3% P, and either no vitamin D (serum 25-OH-D3 approx. 3 pg/ml; serum calcitriol approx. 30 pg/ml) or vitamin D (4 mg/kg (serum 25-OH-D3 approx. 34 pg/ml; serum calcitriol approx. […]) or 40 mg/kg (serum 25-OH-D3 approx. 73 pg/ml; serum calcitriol approx. 70 pg/ml)). Two weeks later, BT20 cells (5 million) were injected with Matrigel (10 mg/ml) into each flank and tumor growth was monitored in the absence of drug treatment.

[4] = Serum calcium and toxicity with chronic in vivo administration; design: species or system athymic nude mice; conditions: 1 μg/kg alternate days, 5 weeks, FIG. 7
Experimental: MCF-7 cells were injected with Matrigel (10 mg/ml) into 7 weeks old female athymic nude mice. Tumors were grown in the presence of implanted estrogen pellets (0.72 mg pellets). After four weeks inoculation, mice were treated for 5 weeks with hormones or vehicle (propylene glycol) control on alternate days. BCA11 and EB1089 were added at a concentration of 1 μg/kg. Serum was drawn throughout hormone treatment from the orbital vein of the mice and assayed by the Department of Clinic Chemistry, National Institutes of Health, by methods well-known in the art. […] Similar results were obtained from multiple blood samples taken from the phase II study. Calcium and phosphorous levels were assayed by Ani Lytics and fell within normal ranges. In addition, alkaline phosphatase, albumin, bilirubin and creatinine levels were measured in both phases.

BT20 cells [5] = assay: Growth of estrogen receptor-negative breast cancer in vivo; design: species or system athymic nude mice
Experimental: BT20 cells (estrogen receptor-negative, human breast cancer cells; 5 million) were injected with Matrigel (10 mg/ml) into each flank of 10 weeks old female athymic nude mice. Mice were maintained on a low-calcium diet (0.4% Ca, 0.3% P and no vitamin D; Harlan Teklad). Then, mice bearing equal number and size tumors were randomly selected for treatment groups. […] Treatment groups received 1.5 μg/kg BCA11 at approximately 21 days after injection of cells. Control groups received vehicle (25% propylene glycol and 75% saline). Drugs or vehicle were injected i.p. three times per week. Tumor growth was monitored biweekly with caliper measurements. […] (Biochem. Pharmacol. (1992)). […] After about four weeks, the mice were divided into treatment and control groups. […] Control groups received vehicle (25% propylene glycol and 75% saline). Drugs or vehicle were injected i.p. three times per week. Tumor growth was monitored biweekly with caliper measurements. Tumor volumes were calculated as indicated in Example 7.

With `CC/C(=C(\c1ccccc1)c1ccc(OCCN(C)C)cc1)c1ccccc1` [Tamoxifen] the “inhibition of tumor growth (tumor volume) compared to control” value (MCF-7 cells [1]) was “about 50%”.

For `C[C@]12CC[C@@H]3c4ccc(O)cc4CC[C@H]3[C@@H]1CC[C@@H]2O` [17β Estradiol], the “effect on MCF-7 cell proliferation ([3H]-thymidine incorporation)” value (MCF-7 cells [2]) was “stimulate cell growth”.

With `C=C1/C(=C\C=C2/CCC[C@]3(C)[C@@H]([C@H](C)CCCC(C)(C)O)CC[C@@H]23)C[C@@H](O)C[C@@H]1O` [Calcitriol, 1,25-dihydroxycholecalciferol] the “[3H]-Thymidine Incorporation MCF-7 cells (% of Control)” value (MCF-7 cells [2]; 10 nM of each hormone) was 67 ± 8 % of Control and the “effect on MCF-7 cell proliferation ([3H]-thymidine incorporation)” value (MCF-7 cells [2]) was “stimulate cell growth”.

With vitamin D the tumor volume (BT20 cells [3]; diet with 4 mg/kg vitamin D, 36 days after injection of BT20 cells) was “approximately 12.5 mm^3”, the tumor weight (BT20 cells [3]; diet with 4 mg/kg vitamin D) was “approximately 0.3 g” and the tumor volume (BT20 cells [3]; diet with 40 mg/kg vitamin D, 36 days after injection of BT20 cells) was “approximately 9.5 mm^3”. For the same molecule, the tumor weight (BT20 cells [3]; diet with 40 mg/kg vitamin D) was “approximately 0.19 g” and the tumor volume (BT20 cells [3]; normal diet with 6.6 mg/kg vitamin D, 41 days after inoculation) was “approx. 37 mm^3”.

For `C=C1/C(=C\C=C2/CCC[C@]3(C)[C@@H]([C@H](C)/C=C/C=C/C(O)(CC)CC)CC[C@@H]23)C[C@@H](O)C[C@@H]1O` [EB1089], the serum calcium levels [4] was “fell within the normal range of physiological calcium”, the tumor weight (BT20 cells [5]; 1.0 μg/kg, day 69) was about 0.07 g and the tumor volume (BT20 cells [5]; i.p. three times per week, around 60 days of treatment, 4 mg/kg vitamin D diet) was “approximately 14 mm^3”.
